Source: patent US20060074243A1, “Hydroxamic acid and amide compounds and their use as protease inhibitors” (Pharmacia Corporation, priority 2002, published 2006)

Assays:
Human recombinant MMP-13 = molecular target: T1, Human recombinant MMP-13 (Homo sapiens, UniProt P45452); assay: In vitro MMP inhibition analysis (fluorogenic peptide substrate cleavage), Ki; format: biochemical
T1 construct: made in house; host or cells: baculovirus / insect cells
Method: (§1) Several compounds and salts were analyzed in an in vitro assay to determine their ability to inhibit the MMP cleavage of peptide substrates. Inhibition constant (Ki) were calculated from the assayed compound-MMP interactions.
(§2) Human recombinant MMP-1, MMP-2, MMP-9, MMP-13, and MMP-14 were used in this assay. All enzymes were prepared in Assignee's laboratories following usual laboratory procedures. Protocols for the preparation and use of these enzymes are available in the scientific literature. See, e.g., Enzyme Nomenclature (Academic Press, San Diego, Calif., 1992) (and the citations therein). See also, Frije et al., J. Biol. Chem., 26(24), 16766-73 (1994).
The MMP-13 was obtained as a proenzyme from a full-length cDNA clone using baculovirus, as described by V. A. Luckow, “Insect Cell Expression Technology,” Protein Engineering: Principles and Practice, pp. 183-218 (edited by J. L. Cleland et al., Wiley-Liss, Inc., 1996). The expressed proenzyme was first purified over a heparin agarose column, and then over a chelating zinc chloride column. The proenzyme was then activated by APMA for use in the assay. Further details on baculovirus expression systems may be found in, for example, Luckow et al., J. Virol., 67, 4566-79 (1993). See also, O'Reilly et al, Baculovirus Expression Vectors: A Laboratory Manual (W.H. Freeman and Co., New York, N.Y., 1992). See also, King et al., The Baculovirus Expression System: A Laboratory Guide (Chapman & Hall, London, England, 1992).
(§3) All MMPs were activated using 4-aminophenylmercuric acetate (“APMA”, Sigma Chemical, St. Louis, Mo.) or trypsin. MMP-9 also was activated using human recombinant MMP-3 (purified in Assignee's laboratory following standard cloning and purification techniques).
(§4) The following fluorogenic, methoxycoumarin-containing polypeptide substrate (I) was used in the MMP inhibition assays: MCA-ArgProLeuGlyLeuDpaAlaArgGluArgNH2 (I) “MCA” is 7-methoxycoumarin-4-yl acetyl. Substrate (I) was prepared Assignee's laboratory. In the absence of MMP inhibitory activity, the substrate is cleaved at the Gly-Leu peptide bond. This cleavage separates the highly fluorogenic peptide from the 2,4-dinitrophenyl quencher, thus resulting in increase of fluorescent intensity.
(§5) The stock solutions of the assayed compounds and salts were prepared in […] (DMSO). These stock solutions were diluted in Buffer A (100 mM Tris-HCl, 100 mM NaCl, 10 mM CaCl2, 0.05% polyoxyethylene 23 lauryl ether, pH 7.5) to obtain solutions with different compound concentrations, i.e., assay solutions with different concentrations of the assayed […] compound. The experiment controls contained the same amount of Buffer A/DMSO as the assayed sample, but contained none of the tested compound or salt.
The assays from which the Ki determinations were made were performed as follows. The assayed compound samples were incubated in separate wells of untreated white polystyrene plates (Nunc Nalgene International, Rochester, N.Y.), and analyzed on a Tecan SpectraFlour Plus plate reader. The excitation wavelength was 330 nm, and the emission wavelength—420 nm. All samples (assayed compounds and controls) were incubated in separate plate wells at room temperature for 1 hr in the presence of 4 μM of MMP substrate (I). In the absence of MMP inhibitory activity, substrate (I) was cleaved at the Gly-Leu bond resulting in an increase of relative fluorescence. Inhibition was observed as a reduced rate of this increase in relative fluorescence. […] This protocol is a modification of method by Knight et al., FEBS Lett., 296(3), 263-266 (1992). Apparent inhibitory constants were determined by non-linear regression of reaction velocity as a function of inhibitor and enzyme concentration using Morrison's equation, as described by Kuzmic, Anal. Biochem. 286, 45-50 (2000). […]

Human recombinant MMP-2 = molecular target: T2, Human recombinant MMP-2 (Homo sapiens, UniProt P08253); assay: as above; format: biochemical
T2 construct: made in house; host or cells: MMP-2-transfected p2AHT2 cells
T2 sequence (P08253 110-660): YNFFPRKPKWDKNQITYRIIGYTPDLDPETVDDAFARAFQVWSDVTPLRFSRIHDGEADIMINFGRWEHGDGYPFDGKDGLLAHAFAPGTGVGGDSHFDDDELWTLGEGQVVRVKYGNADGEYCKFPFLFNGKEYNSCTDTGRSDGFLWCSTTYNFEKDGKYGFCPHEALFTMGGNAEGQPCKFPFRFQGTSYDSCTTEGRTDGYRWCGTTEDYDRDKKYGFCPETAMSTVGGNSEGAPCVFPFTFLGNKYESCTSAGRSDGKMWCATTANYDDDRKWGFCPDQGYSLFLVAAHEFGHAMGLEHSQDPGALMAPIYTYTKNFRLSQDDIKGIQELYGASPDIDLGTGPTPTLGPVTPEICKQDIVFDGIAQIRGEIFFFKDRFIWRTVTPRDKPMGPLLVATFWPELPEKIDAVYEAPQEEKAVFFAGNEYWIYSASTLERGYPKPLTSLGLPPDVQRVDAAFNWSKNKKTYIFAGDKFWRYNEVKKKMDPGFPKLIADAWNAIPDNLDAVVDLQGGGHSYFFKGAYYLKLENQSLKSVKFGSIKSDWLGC
Method: as §1, §2
The MMP-2 proenzyme was purified by gelatin Sepharose chromatography from MMP-2-transfected p2AHT2 cells provided by Dr. Gregory Goldberg of Washington University (St. Louis, Mo.).
as §3, §4, §5
The assays from which the Ki determinations were made were performed as follows. The assayed compound samples were incubated in separate wells of untreated white polystyrene plates (Nunc Nalgene International, Rochester, N.Y.), and analyzed on a Tecan SpectraFlour Plus plate reader. The excitation wavelength was 330 nm, and the emission wavelength—420 nm. All samples (assayed compounds and controls) were incubated in separate plate wells at room temperature for 1 hr in the presence of 4 μM of MMP substrate (I). In the absence of MMP inhibitory activity, substrate (I) was cleaved at the Gly-Leu bond resulting in an increase of relative fluorescence. Inhibition was observed as a reduced rate of this increase in relative fluorescence. […] This protocol is a modification of method by Knight et al., FEBS Lett., 296(3), 263-266 (1992). Apparent inhibitory constants were determined by non-linear regression of reaction velocity as a function of inhibitor and enzyme concentration using Morrison's equation, as described by Kuzmic, Anal. Biochem. 286, 45-50 (2000). Modifications were made in the non-linear regression method to allow a common control reaction rate and effective enzyme concentration to be shared between all dose-response relationships on a given assay plate. Since the substrate concentration was chosen to be at or below the Km, the apparent Ki's from this analysis were reported as Ki's without correction for the influence of substrate.
The above protocols were used to determine Ki constants for the compounds in Examples 2-35 above. All Ki values in Table 1 are given in nM units.

| Ki (Human recombinant MMP-13; Table 1) [nM] | Ki (Human recombinant MMP-2; Table 1) [nM] | Ki (Human recombinant MMP-13; Table 2) [nM] | Ki (Human recombinant MMP-2; Table 2) [nM] | SMILES |
| --- | --- | --- | --- | --- |
| 0.45 | 2.02 |  |  | O=C(NO)C1(S(=O)(=O)c2ccc(-c3cnc(CCCC(F)(F)F)cn3)cc2)CCOCC1 [Example 58] |
|  |  | 0.31 | 0.39 | O=C(NO)C1(S(=O)(=O)c2ccc(-c3cnc(OCC(F)(F)C(F)(F)F)cn3)cc2)CCN(C2CC2)CC1 [Example 156] |
|  |  | 0.012 | 0.146 | CCN1CCC(C(=O)NO)(S(=O)(=O)c2ccc(-c3ccc(OCCCCO)cc3)cc2)CC1 [Example 118] |
|  |  | 0.05 | 0.1 | COCCN1CCC(C(=O)NO)(S(=O)(=O)c2ccc(-c3ccc(-c4ccccc4)cc3)cc2)CC1 [Example 152] |
|  |  | 5.22 | 9 | CCCCc1ccc(-c2ccc(S(=O)(=O)C3(C(=O)NO)CCN(CC)CC3)cc2)cn1 [Example 139] |
| 0.028 | 0.089 |  |  | CCOCCOc1ccc(-c2ccc(S(=O)(=O)C3(C(=O)NO)CCOCC3)cc2)cc1 [Example 37] |
|  |  | 0.26 | 0.72 | O=C(NO)C1(S(=O)(=O)c2ccc(-c3ccc(-c4ccc(OC(F)(F)F)cc4)cn3)cc2)CCN(C2CC2)CC1 [Example 145] |
| 0.02 | 0.11 |  |  | CCN1CCC(C(=O)NO)(S(=O)(=O)c2ccc(-c3ccc(CCC(C)(F)F)cc3)cc2)CC1 [Example 61] |
|  |  | 0.028 | 0.0835 | CCCCOc1cnc(-c2ccc(S(=O)(=O)C3(C(=O)NO)CCOCC3)cc2)cn1 [Example 73] |
|  |  | 0.018 | 0.093 | CCCCOc1ccc(-c2ccc(S(=O)(=O)C3(C(=O)NO)CCN(CCOC)CC3)cc2)cc1 [Example 119] |
| 0.07 | 0.21 |  |  | CCN1CCC(C(=O)NO)(S(=O)(=O)c2ccc(-c3ccc(CCC(F)(F)C(F)(F)F)cn3)cc2)CC1 [Example 52] |
|  |  | 0.082 | 0.191 | CCCCOc1ccc(-c2ccc(S(=O)(=O)C3(C(=O)NO)CCN(C4CC4)CC3)cc2)cc1 [Example 120] |
| 0.13 | 0.48 |  |  | O=C(NO)C1(S(=O)(=O)c2ccc(-c3ccc(CCCC(F)(F)F)cc3)cc2)CCN(C2CC2)CC1 [Example 44] |
|  |  | 0.7 | 2.01 | O=C(NO)C1(S(=O)(=O)c2ccc(-c3cnc(-c4cccs4)cn3)cc2)CCOCC1 [Example 160] |
| 0.07 | 0.14 |  |  | COCCN1CCC(C(=O)NO)(S(=O)(=O)c2ccc(-c3ccc(CCC(C)(F)F)cn3)cc2)CC1 [Example 67] |
| 0.46 | 0.55 |  |  | O=C(NO)C1(S(=O)(=O)c2ccc(-c3ccc(CCC(F)(F)C(F)(F)F)cc3)cc2)CCN(C2CC2)CC1 [Example 45] |
|  |  | 0.021 | 0.074 | CCN1CCC(C(=O)NO)(S(=O)(=O)c2ccc(-c3ccc(-c4ccncc4)cc3)cc2)CC1 [Example 136] |

| Ki (Human recombinant MMP-13; Table 1) [nM] | Ki (Human recombinant MMP-2; Table 1) [nM] | Ki (Human recombinant MMP-13; Table 2) [nM] | Ki (Human recombinant MMP-2; Table 2) [nM] | SMILES |
| --- | --- | --- | --- | --- |
| 0.296 | 1.65 |  |  | CCN1CCC(C(=O)NO)(S(=O)(=O)c2ccc(-c3cnc(CCC(C)(F)F)cn3)cc2)CC1 [Example 64] |
|  |  | 5.7 | 7.26 | CCN1CCC(C(=O)NO)(S(=O)(=O)c2ccc(-c3noc(-c4ccncc4)n3)cc2)CC1 [Example 148] |
|  |  | 0.26 | 0.37 | COCCN1CCC(C(=O)NO)(S(=O)(=O)c2ccc(-c3cnc(OCC(F)(F)C(F)(F)F)cn3)cc2)CC1 [Example 157] |
| 0.0509 | 0.0611 |  |  | O=C(NO)C1(S(=O)(=O)c2ccc(-c3ccc(OC(F)(F)C(F)F)cc3)cc2)CCOCC1 [Example 68] |
|  |  | 0.09 | 0.6 | COCC#Cc1cnc(-c2ccc(S(=O)(=O)C3(C(=O)NO)CCOCC3)cc2)cn1 [Example 164] |
| 0.224 | 0.375 |  |  | O=C(NO)C1(S(=O)(=O)c2ccc(-c3ccc(CCC(F)(F)C(F)(F)F)cc3)cc2)CCOCC1 [Example 41] |
| 0.05 | 0.11 |  |  | CC(F)(F)CCc1ccc(-c2ccc(S(=O)(=O)C3(C(=O)NO)CCN(C4CC4)CC3)cc2)cc1 [Example 59] |
|  |  | 71 | 153 | O=C(NO)C1(S(=O)(=O)c2ccc(-c3cscc3-c3ccc(F)cc3)cc2)CCOCC1 [Example 132] |
| 0.01 | 0.04 |  |  | COCCN1CCC(C(=O)NO)(S(=O)(=O)c2ccc(-c3ccc(CCC(C)(F)F)cc3)cc2)CC1 [Example 63] |
|  |  | 22.5 | 53.7 | O=C(NO)C1(S(=O)(=O)c2ccc(-c3cnc(CCC(F)(F)C(F)(F)F)nc3)cc2)CCOCC1 [Example 142] |
| 0.12 | 0.19 |  |  | O=C(NO)C1(S(=O)(=O)c2ccc(-c3ccc(CCC(F)(F)C(F)(F)F)cn3)cc2)CCN(C2CC2)CC1 [Example 50] |
|  |  | 3.3 | 32.9 | CCc1csc(Nc2ccc(-c3ccc(S(=O)(=O)C4(C(=O)NO)CCOCC4)cc3)cc2)n1 [Example 124] |
|  |  | 0.048 | 0.18 | O=C(NO)C1(S(=O)(=O)c2ccc(-c3ccc(-n4cncn4)cc3)cc2)CCOCC1 [Example 126] |
|  |  | 0.011 | 0.02 | CCOc1ccc(-c2ccc(S(=O)(=O)C3(C(=O)NO)CCOCC3)cc2)cc1 [Example 163] |
|  |  | 0.299 | 0.674 | CCCCCc1ccc(-c2ccc(S(=O)(=O)C3(C(=O)NO)CCOCC3)cc2)cc1 [Example 75] |
| 0.212 | 0.463 |  |  | CC(F)(F)CCc1cnc(-c2ccc(S(=O)(=O)C3(C(=O)NO)CCOCC3)cc2)cn1 [Example 60] |
| 0.0403 | 0.0708 |  |  | O=C(NO)C1(S(=O)(=O)c2ccc(-c3ccc(CCC(F)(F)C(F)(F)F)cn3)cc2)CCOCC1 [Example 36] |
